Data taken from PubChem BioAssay (NCI).
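Each compound was tested at five concentrations against cells in 96-well plates for 48 hours. At the GI50, growth is halved. TGI: concentration producing complete growth inhibition.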

Assays:
Assay in all cases: inhibition of tumour cell growth, NCI panel, 48 h
786-0 renal = system: 786-0 renal
A498 renal = system: A498 renal
A549 NSCLC = system: A549 NSCLC
ACHN renal = system: ACHN renal
BT-549 breast = system: BT-549 breast
CAKI-1 renal = system: CAKI-1 renal
CCRF-CEM leukemia = system: CCRF-CEM leukemia
COLO 205 colon = system: COLO 205 colon
DU-145 prostate = system: DU-145 prostate
EKVX NSCLC = system: EKVX NSCLC
HCC-2998 colon = system: HCC-2998 colon
HCT-116 colon = system: HCT-116 colon
HCT-15 colon = system: HCT-15 colon
HL-60(TB) leukemia = system: HL-60(TB) leukemia
HOP-62 NSCLC = system: HOP-62 NSCLC
HOP-92 NSCLC = system: HOP-92 NSCLC
HS 578T breast = system: HS 578T breast
HT29 colon = system: HT29 colon
IGROV1 ovarian = system: IGROV1 ovarian
K-562 leukemia = system: K-562 leukemia
KM12 colon = system: KM12 colon
LOX IMVI melanoma = system: LOX IMVI melanoma
M14 melanoma = system: M14 melanoma
MALME-3M melanoma = system: MALME-3M melanoma
MCF7 breast = system: MCF7 breast
MDA-MB-231 breast = system: MDA-MB-231 breast
MDA-MB-435 = system: MDA-MB-435
MOLT-4 leukemia = system: MOLT-4 leukemia
NCI-H226 lung = system: NCI-H226 lung
NCI-H23 lung = system: NCI-H23 lung
NCI-H460 lung = system: NCI-H460 lung
NCI-H522 lung = system: NCI-H522 lung
NCI/ADR-RES ovarian = system: NCI/ADR-RES ovarian
OVCAR-3 ovarian = system: OVCAR-3 ovarian
OVCAR-4 ovarian = system: OVCAR-4 ovarian
OVCAR-5 ovarian = system: OVCAR-5 ovarian
OVCAR-8 ovarian = system: OVCAR-8 ovarian
PC-3 prostate = system: PC-3 prostate
RPMI-8226 leukemia = system: RPMI-8226 leukemia
RXF 393 renal = system: RXF 393 renal
SF-268 CNS = system: SF-268 CNS
SF-295 CNS = system: SF-295 CNS
SF-539 CNS = system: SF-539 CNS
SK-MEL-2 melanoma = system: SK-MEL-2 melanoma
SK-MEL-5 melanoma = system: SK-MEL-5 melanoma
SK-OV-3 ovarian = system: SK-OV-3 ovarian
SN12C renal = system: SN12C renal
SNB-19 CNS = system: SNB-19 CNS
SNB-75 CNS = system: SNB-75 CNS
SR leukemia = system: SR leukemia
SW-620 colon = system: SW-620 colon
T-47D breast = system: T-47D breast
TK-10 renal = system: TK-10 renal
U251 CNS = system: U251 CNS
UACC-257 melanoma = system: UACC-257 melanoma
UACC-62 melanoma = system: UACC-62 melanoma
UO-31 renal = system: UO-31 renal

Structure (SMILES): CCCCCCCCn1ccc2cc(NC(=O)Cn3cc(CN4CCN(CC)CC4)nn3)ccc21
- GI50 (786-0 renal): 1.61 µM
- TGI (786-0 renal): 3.11 µM
- GI50 (A498 renal): 2.07 µM
- TGI (A498 renal): 4.97 µM
- GI50 (A549 NSCLC): 1.99 µM
- TGI (A549 NSCLC): 4.1 µM
- GI50 (ACHN renal): 1.82 µM
- TGI (ACHN renal): 3.47 µM
- GI50 (BT-549 breast): 1.76 µM
- TGI (BT-549 breast): 4.19 µM
- GI50 (CAKI-1 renal): 1.8 µM
- TGI (CAKI-1 renal): 3.43 µM
- GI50 (CCRF-CEM leukemia): 3.06 µM
- TGI (CCRF-CEM leukemia): 10.3 µM
- GI50 (COLO 205 colon): 1.8 µM
- TGI (COLO 205 colon): 3.47 µM
- GI50 (DU-145 prostate): 3.4 µM
- TGI (DU-145 prostate): 11.4 µM
- GI50 (EKVX NSCLC): 1.81 µM
- TGI (EKVX NSCLC): 4.65 µM
- GI50 (HCC-2998 colon): 1.84 µM
- TGI (HCC-2998 colon): 3.43 µM
- GI50 (HCT-116 colon): 1.7 µM
- TGI (HCT-116 colon): 3.51 µM
- GI50 (HCT-15 colon): 1.78 µM
- TGI (HCT-15 colon): 3.79 µM
- GI50 (HL-60(TB) leukemia): 1.97 µM
- TGI (HL-60(TB) leukemia): 4.14 µM
- GI50 (HOP-62 NSCLC): 1.7 µM
- TGI (HOP-62 NSCLC): 3.33 µM
- GI50 (HOP-92 NSCLC): 1.36 µM
- TGI (HOP-92 NSCLC): 2.9 µM
- GI50 (HS 578T breast): 2.14 µM
- TGI (HS 578T breast): 5.54 µM
- GI50 (HT29 colon): 2 µM
- TGI (HT29 colon): 4.39 µM
- GI50 (IGROV1 ovarian): 2.17 µM
- TGI (IGROV1 ovarian): 5.98 µM
- GI50 (K-562 leukemia): 2.05 µM
- TGI (K-562 leukemia): 4.34 µM
- GI50 (KM12 colon): 2.08 µM
- TGI (KM12 colon): 4.74 µM
- GI50 (LOX IMVI melanoma): 1.72 µM
- TGI (LOX IMVI melanoma): 3.2 µM
- GI50 (M14 melanoma): 1.9 µM
- TGI (M14 melanoma): 3.67 µM
- GI50 (MALME-3M melanoma): 1.68 µM
- TGI (MALME-3M melanoma): 3.17 µM
- GI50 (MCF7 breast): 1.82 µM
- TGI (MCF7 breast): 3.73 µM
- GI50 (MDA-MB-231 breast): 1.75 µM
- TGI (MDA-MB-231 breast): 3.38 µM
- GI50 (MDA-MB-435): 1.78 µM
- TGI (MDA-MB-435): 3.32 µM
- GI50 (MOLT-4 leukemia): 2.58 µM
- TGI (MOLT-4 leukemia): 6.68 µM
- GI50 (NCI-H226 lung): 1.59 µM
- TGI (NCI-H226 lung): 3.1 µM
- GI50 (NCI-H23 lung): 1.96 µM
- TGI (NCI-H23 lung): 4.14 µM
- GI50 (NCI-H460 lung): 1.94 µM
- TGI (NCI-H460 lung): 3.68 µM
- GI50 (NCI-H522 lung): 1.89 µM
- TGI (NCI-H522 lung): 3.84 µM
- GI50 (NCI/ADR-RES ovarian): 12.2 µM
- TGI (NCI/ADR-RES ovarian): 27.7 µM
- GI50 (OVCAR-3 ovarian): 2.7 µM
- TGI (OVCAR-3 ovarian): 8.25 µM
- GI50 (OVCAR-4 ovarian): 6.46 µM
- TGI (OVCAR-4 ovarian): 19.2 µM
- GI50 (OVCAR-5 ovarian): 2.36 µM
- TGI (OVCAR-5 ovarian): 6.39 µM
- GI50 (OVCAR-8 ovarian): 2.33 µM
- TGI (OVCAR-8 ovarian): 5.83 µM
- GI50 (PC-3 prostate): 2.06 µM
- TGI (PC-3 prostate): 5.03 µM
- GI50 (RPMI-8226 leukemia): 2.28 µM
- TGI (RPMI-8226 leukemia): 5.39 µM
- GI50 (RXF 393 renal): 1.48 µM
- TGI (RXF 393 renal): 3.04 µM
- GI50 (SF-268 CNS): 1.9 µM
- TGI (SF-268 CNS): 4.01 µM
- GI50 (SF-295 CNS): 1.87 µM
- TGI (SF-295 CNS): 3.7 µM
- GI50 (SF-539 CNS): 1.68 µM
- TGI (SF-539 CNS): 3.17 µM
- GI50 (SK-MEL-2 melanoma): 2.01 µM
- TGI (SK-MEL-2 melanoma): 3.89 µM
- GI50 (SK-MEL-5 melanoma): 1.75 µM
- TGI (SK-MEL-5 melanoma): 3.14 µM
- GI50 (SK-OV-3 ovarian): 1.78 µM
- TGI (SK-OV-3 ovarian): 3.49 µM
- GI50 (SN12C renal): 1.82 µM
- TGI (SN12C renal): 3.76 µM
- GI50 (SNB-19 CNS): 1.9 µM
- TGI (SNB-19 CNS): 3.77 µM
- GI50 (SNB-75 CNS): 1.52 µM
- TGI (SNB-75 CNS): 2.98 µM
- GI50 (SR leukemia): 3.35 µM
- TGI (SR leukemia): 11.8 µM
- GI50 (SW-620 colon): 1.9 µM
- TGI (SW-620 colon): 3.62 µM
- GI50 (T-47D breast): 1.81 µM
- TGI (T-47D breast): 3.56 µM
- GI50 (TK-10 renal): 1.77 µM
- TGI (TK-10 renal): 3.36 µM
- GI50 (U251 CNS): 1.77 µM
- TGI (U251 CNS): 3.26 µM
- GI50 (UACC-257 melanoma): 1.83 µM
- TGI (UACC-257 melanoma): 3.65 µM
- GI50 (UACC-62 melanoma): 1.91 µM
- TGI (UACC-62 melanoma): 3.5 µM
- GI50 (UO-31 renal): 1.46 µM
- TGI (UO-31 renal): 2.79 µM
